In the NIST ThermoML archive (doi:10.1016/j.jct.2013.06.018):
± gives the expanded uncertainty stated by the source.

Experiment: excess molar enthalpy (molar enthalpy of mixing); xn = mol fraction of the nth substance listed
Settings: 298.15 K, 101 kPa, Liquid, Calvet calorimetry

CCCCCCC [heptane] + CCCO
Settings	excess molar enthalpy [kJ/mol]
x2 = 0.0699	0.428 ± 0.009
x2 = 0.1182	0.522 ± 0.011
x2 = 0.2088	0.62 ± 0.013
x2 = 0.3839	0.661 ± 0.014
x2 = 0.4743	0.635 ± 0.014
x2 = 0.5332	0.595 ± 0.013
x2 = 0.6744	0.48 ± 0.01
x2 = 0.7196	0.433 ± 0.009
x2 = 0.7698	0.379 ± 0.008
x2 = 0.7701	0.37 ± 0.008
x2 = 0.8193	0.301 ± 0.007
x2 = 0.8566	0.253 ± 0.006
x2 = 0.8909	0.202 ± 0.005
x2 = 0.8974	0.194 ± 0.004
x2 = 0.9343	0.129 ± 0.003
x2 = 0.9675	0.067 ± 0.002
